“And” between values parts separate entries of the source, which are not always exact repeats. Identical values can stand only once. Like-named read-outs stand apart in the source and are kept apart here.
Experiments:
HepG2 cells = test: Cytotoxicity, MTT assay; format: cell-based, human; design: key to cell viability, mean: % viability = OD / OD of untreated control
Method: HeLa cells were seeded on flat-bottomed 96-well plates (5000 cells per well) and incubated at 37 °C overnight. Varying concentrations of P-CyPt, Pt^IVNPs or CDDP (0, 1, 2, 5, 10, 20, 30, 50, 100, and 200 μM) in DMEM medium (100 μL) were added. Cells were either incubated for 48 h, or firstly incubated with these three compounds for 2 h, washed with PBS and then incubated with refreshed blank DMEM medium for another 48 h. Then, 3-(4,5)-dimethylthiahiazo (-z-y1)−3,5-di-phenytetrazoliumromide (MTT, 50 μL, 1 mg /mL in PBS) was added into each well. The cells were kept at 37 °C for 4 h, and the solution in each well was carefully removed, followed by addition of dimethyl sulfoxide (DMSO, 150 μL). The absorbance (OD) at 490 nm in each well was acquired on the microplate reader (Tcan). The absorbance of non-treated blank cells (OD control) was used as the control. The percentage of cell viability was calculated by dividing OD to the OD control. […]
Supplementary Table 4. The IC50 (μM) value of different Pt drugs toward HeLa, HepG2 and HEK-293T cells.a
Compounds Condition IC50 (μM) HeLa HepG2 HEK-293T […]
a The IC50 values were measured by the MTT assay. Values denote mean ± s.d. (n = 3 independent experiments). b Cells were incubated with varying concentrations of CDDP, P-CyPt or PtIVNPs for […]
c Cells were incubated with varying concentrations of CDDP, P-CyPt or PtIVNPs for 2 h, and the mediums were removed, washed with PBS. Blank culture mediums were added, and the cells were kept incubation for another 48 h.

HeLa cells = test: Flow cytometry analysis of HeLa cell death (Annexin V-FITC/PI); format: cell-based, human; conditions: 20 μM 2 h, then blank medium 48 h
Method: Flow cytometric analysis of HeLa cell death. (a) Gating strategy applied for flow cytometric analysis. (b) Representative flow cytometric analysis of HeLa cells by Annexin V-FITC/PI staining. HeLa cells were treated with PBS, CDDP, PtIVNPs or P-CyPt (20 μM) for 2 h, washed with cold PBS for three times, and then continued incubation in refresh blank DMEM medium for another 48 h. The cells were then stained with the Annexin V-FITC/PI kit, and analyzed by flow cytometry. One representative experiment out of two is shown.
Flow cytometry analysis of HeLa cell death. Approximately 2×10^5 cells/well HeLa cells in 2 mL DMEM medium were seeded onto 6-well plates and allowed to grow overnight. The medium was replaced with 1 mL of fresh medium containing P-CyPt (20 μM), PtIVNPs (20 μM) and CDDP (20 μM), respectively. After 2 h incubation, medium was removed and cells were washed with PBS for three times. Then, cells were incubated with fresh medium for another 48 h to induce different levels of apoptosis.
After gentle washing with PBS (×1), the cells were detached from the plates with trypsin (500 μL per well), and the cell pellets were collected after centrifugation at 1000 161× g at 4 °C for 4 min. […] All assays were performed according to the manufacturer instructions, and the cell population was analyzed by annexin V-FITC and PI channels. […]

s.c. HeLa tumors = test: Biodistribution study of Pt (ICP-OES); format: in vivo, mice
[1] = Urine and faeces analysis by HPLC (mCy-containing compounds); format: in vivo, mice; design: mCy in urine: unit not given beside the values; conditions: for percentage excreted to the faeces (HPLC) / percentage excreted to the urine (HPLC): after i.v. P-CyPt
[2] = Time period 0-2 h, individual mice, matrix and injected agent not given
[3] = Time period 0-2 h, mean of 3 mice, matrix and injected agent not given
[4] = Time period 2-4 h, individual mice
[5] = Time period 2-4 h, mean of 3 mice
[6] = Time period 4-8 h, individual mice
[7] = Time period 4-8 h, mean of 3 mice
[8] = Time period 8-12 h, mean of 3 mice

In the case of `CC1(C)C(/C=C/C2=C3Oc4cc(OP(=O)(O)O)c(Cl)cc4C=C3CCC2)=[N+](CCCNC(=O)[C@@H](Cc2ccccc2)NC(=O)[C@@H](Cc2ccccc2)NC(=O)CCC(=O)[O][Pt]([NH2])([NH2])([OH])([Cl])[Cl])c2ccccc21` [P-CyPt], the “cell viability, mean” value (HepG2 cells; Supplementary Fig. 23 (b), concentration 50 μM) is reported as 15.7997, the “cell viability, mean” value (HepG2 cells; Supplementary Fig. 23 (b), concentration 100 μM) is reported as 10.0234 and the “cell viability, mean” value (HepG2 cells; Supplementary Fig. 23 (b), concentration 200 μM) is reported as 7.08. For the same molecule, the IC50 (HepG2 cells; Supplementary Fig. 23 (b), read-out: IC50) was 10.3 µM, the “cell viability, mean” value (HepG2 cells; Supplementary Fig. 24 (b), concentration 1 μM) was 95.0066 and the “cell viability, mean” value (HepG2 cells; Supplementary Fig. 24 (b), concentration 2 μM) was 86.4416. For the same molecule, the “cell viability, mean” value (HepG2 cells; Supplementary Fig. 24 (b), concentration 5 μM) was 75.7976, the “cell viability, mean” value (HepG2 cells; Supplementary Fig. 24 (b), concentration 10 μM) was 64.0113 and the “cell viability, mean” value (HepG2 cells; Supplementary Fig. 24 (b), concentration 20 μM) was 47.6001. The “cell viability, mean” value (HepG2 cells; Supplementary Fig. 24 (b), concentration 30 μM) was 36.5665, the “cell viability, mean” value (HepG2 cells; Supplementary Fig. 24 (b), concentration 50 μM) was 27.7515 and the “cell viability, mean” value (HepG2 cells; Supplementary Fig. 24 (b), concentration 100 μM) was 19.0319. For the same molecule, the “cell viability, mean” value (HepG2 cells; Supplementary Fig. 24 (b), concentration 200 μM) was 12.1606, the IC50 (HepG2 cells; Supplementary Fig. 24 (b), read-out: IC50) was 18.1 µM and the IC50 (HepG2 cells; incubated 2 h, then blank medium 48 h, MTT, read-out: IC50 HepG2) was 18.1 ± 1.78 µM. The IC50 (HepG2 cells; incubated 48 h, MTT, read-out: IC50 HepG2) was 10.3 ± 0.87 µM, the apoptosis population (HeLa cells) was ~ 64.5% and the “organ with the highest ID% g^−1” value (s.c. HeLa tumors; 4 h post i.v. injection) was “tumors”. The “ID% g^−1 of Pt in tumors” value (s.c. HeLa tumors; s.c. HeLa tumors, 4 h post i.v. (100 μM, 200 μL), ICP-OES) was roughly 20.3%, the mCy in urine ([1]; Fig.6e, 0-2 h, mean of 3 mice) was 12.76 and the mCy in urine ([1]; Fig.6e, 0-2 h, single mice) was 12.5823 and 14.2325 and 11.4685. The mCy in urine ([1]; Fig.6e, 2-4 h, mean of 3 mice) was 12.43, the mCy in urine ([1]; Fig.6e, 2-4 h, single mice) was 12.5615 and 13.5939 and 11.1324 and the mCy in urine ([1]; Fig.6e, 4-8 h, mean of 3 mice) was 12.56. For the same molecule, the mCy in urine ([1]; Fig.6e, 4-8 h, single mice) was 12.5588 and 13.6118 and 11.5060, the mCy in urine ([1]; Fig.6e, 8-12 h, mean of 3 mice) was 7.02 and the mCy in urine ([1]; Fig.6e, 8-12 h, single mice) was 7.0621 and 8.1416 and 5.8422. For the same molecule, the mCy in urine ([1]; Fig.6f, 0-2 h, mean of 3 mice) was 0.53, the mCy in urine ([1]; Fig.6f, 0-2 h, single mice) was 0.4663 and 0.7332 and 0.3884 and the mCy in urine ([1]; Fig.6f, 2-4 h, mean of 3 mice) was 6.03. The mCy in urine ([1]; Fig.6f, 2-4 h, single mice) was 6.1714 and 7.3564 and 4.5750, the mCy in urine ([1]; Fig.6f, 4-8 h, mean of 3 mice) was 21.29 and the mCy in urine ([1]; Fig.6f, 4-8 h, single mice) was 22.9482 and 23.3466 and 17.5729. For the same molecule, the mCy in urine ([1]; Fig.6f, 8-12 h, mean of 3 mice) was 9.19, the mCy in urine ([1]; Fig.6f, 8-12 h, single mice) was 7.4602 and 10.7840 and 9.3353 and the “Compound found in excreta (%), Supplementary Table S5” value [1, 2] was 11.1327% and 12.5928% and 10.1473%. The “Compound found in excreta (%), Supplementary Table S6” value [1, 2] was 0.3965% and 0.6235% and 0.3303%, the “Compound found in excreta (%), Supplementary Table S5” value [1, 3] was 11.29% and the “Compound found in excreta (%), Supplementary Table S6” value [1, 3] was 0.45%. The “Compound found in excreta (%), Supplementary Table S5” value [1, 4] was 5.17% and 5.5947% and 4.582%, the “Compound found in excreta (%), Supplementary Table S6” value [1, 4] was 4.641% and 5.532% and 3.44% and the “Compound found in excreta (%), Supplementary Table S5” value [1, 5] was 5.12%. For the same molecule, the “Compound found in excreta (%), Supplementary Table S6” value [1, 5] was 4.54%, the “Compound found in excreta (%), Supplementary Table S5” value [1, 6] was 4.333% and 4.696% and 3.97% and the “Compound found in excreta (%), Supplementary Table S6” value [1, 6] was 0.5705% and 0.5804% and 0.4369%. The “Compound found in excreta (%), Supplementary Table S5” value [1, 7] was 4.33%, the “Compound found in excreta (%), Supplementary Table S6” value [1, 7] was 0.53% and the “Compound found in excreta (%), Supplementary Table S5” value [1, 8] was 1.41%. For the same molecule, the “Compound found in excreta (%), Supplementary Table S6” value [1, 8] was 0.06%, the “percentage excreted to the faeces (HPLC)” value ([1]; 2-4 h) was 4.54± 1.05% and ~ 4.5% and the “percentage excreted to the urine (HPLC)” value ([1]; 2-4 h) was 5.12 ± 0.51%. The “percentage excreted to the faeces (HPLC)” value ([1]; 4-8 h) was 0.53 ± 0.080%, the “percentage excreted to the urine (HPLC)” value ([1]; 4-8 h) was 4.33 ± 0.055% and the “percentage excreted to the faeces (HPLC)” value ([1]; 8-12 h) was 0.059 ± 0.011%. The “percentage excreted to the urine (HPLC)” value ([1]; 8-12 h) was 1.41 ± 0.23%, the “mCy-containing compounds excreted via hepatobiliary system” value ([1]; over 12 h, of injected dose) was ~ 37.0% and the “mCy-containing compounds excreted via renal system” value ([1]; over 12 h, of injected dose) was ~ 44.8%.

Source: paper PMC9925730, “Controlled sequential in situ self-assembly and disassembly of a fluorogenic cisplatin prodrug for cancer theranostics” (Nature Communications, 2023)
